In ChEMBL document CHEMBL3351554, “Benzophenone C- and O-glucosides from Cyclopia genistoides (Honeybush) inhibit mammalian α-glucosidase” (2014):
Activity calls are given as the source filed them. No cut-off for these calls is given here.

Assays:
Rattus norvegicus [1] = organism: Rattus norvegicus; experiment: Inhibition of rat intestinal alpha-glucosidase using 7-O-alpha-D-glucopyranosyl 4-methylumbelliferone preincubated for 15 mins at 200 uM prior substrate addition measured over 30 mins by fluorescence assay
Rattus norvegicus [2] = organism: Rattus norvegicus; experiment: Inhibition of rat intestinal alpha-glucosidase using 7-O-alpha-D-glucopyranosyl 4-methylumbelliferone preincubated for 15 mins at 50 to 200 uM prior substrate addition measured over 30 mins by fluorescence assay
Rattus norvegicus [3] = organism: Rattus norvegicus; experiment: Inhibition of rat intestinal alpha-glucosidase using 7-O-alpha-D-glucopyranosyl 4-methylumbelliferone preincubated for 15 mins at 100 to 400 uM prior substrate addition measured over 30 mins by fluorescence assay
3T3-L1 = experiment: Increase in [3H]-2-DOG uptake in mouse 3T3L1 cells at 0.001 to 100 uM after 3 hrs by liquid scintillation counting relative to vehicle-treated control
HepG2/C3A = experiment: Increase in [3H]-2-DOG uptake in human HepG2/C3A cells at 0.001 to 100 uM after 3 hr by liquid scintillation counting relative to vehicle-treated control
L6 = experiment: Increase in [3H]-2-DOG uptake in rat L6 cells at 10 uM after 1 hr by liquid scintillation counting relative to vehicle-treated control; assay type: functional

Row | inhibition (Rattus norvegicus [1]) [%] | inhibition (Rattus norvegicus [2]) | inhibition (Rattus norvegicus [3]) | Compound | Activity (3T3-L1) | Activity (HepG2/C3A) | Activity (L6) [%]
1 | 54 | – | – | O=C(c1ccc(O)c(O)c1)c1c(O)cc(O)c([C@@H]2O[C@H](CO)[C@@H](O)[C@H](O)[C@H]2O)c1O | – | – | –
2 | – | inactive | – | O=C(c1ccc(O)c(O)c1)c1c(O)cc(O)cc1O | – | – | –
3 | – | – | Active | O=C(c1ccc(O)cc1)c1c(O)cc(O)c([C@@H]2O[C@H](CO)[C@@H](O)[C@H](O)[C@H]2O)c1O | Active | Active | –
4 | 43 | – | Active | O=C(c1ccc(O)cc1)c1c(O)cc(O[C@@H]2O[C@H](CO)[C@@H](O)[C@H](O)[C@H]2O)c([C@@H]2O[C@H](CO)[C@@H](O)[C@H](O)[C@H]2O)c1O | Active | Active | 22
